In ChEMBL document CHEMBL5357077, “Synthesis and Biological Evaluation of β-Lactam Derivatives Targeting Speckle-Type POZ Protein (SPOP)” (ACS Med Chem Lett, 2024):
The source made the active and inactive calls. The rule behind the calls is not given here.

Columns and labels:
Speckle-type POZ protein [1] = molecular target: T1, Speckle-type POZ protein (Homo sapiens, UniProt O43791); experiment: (§1) Inhibition of GST-tagged human SPOP MATH domain (28 to 166 residues) expressed in Escherichia coli BL21 CodonPlus (DE3)-RIPL cells using FITC-LACDEVTSTTSSSTA peptide as substrate assessed as inhibition of substrate binding to SPOP preincubated with compound for 30 mins followed by substrate addition and measured immediately by fluorescence polarization assay
Speckle-type POZ protein [2] = molecular target: T1, Speckle-type POZ protein; experiment: as §1, with “Potency index, ratio of 230D7 IC50 to test compound IC50 for inhibition” for “Inhibition”
Speckle-type POZ protein [3] = molecular target: T1, Speckle-type POZ protein; experiment: Binding affinity to GST-tagged human SPOP MATH domain (28 to 166 residues) expressed in Escherichia coli BL21 CodonPlus (DE3)-RIPL cells assessed as equilibrium dissociation constant by SPR analysis
Speckle-type POZ protein [4] = molecular target: T1, Speckle-type POZ protein; experiment: Inhibition of GST-tagged human SPOP MATH domain (28 to 166 residues) expressed in Escherichia coli BL21 CodonPlus (DE3)-RIPL cells using Myc-DUSP7 as substrate assessed as disruption of SPOP binding to substrate at 1 to 40 uM incubated for 2 hrs by GST pull-down assay; conditions: dose 1-40 µM
Speckle-type POZ protein [5] = molecular target: T1, Speckle-type POZ protein; experiment: Inhibition of GST-tagged human SPOP MATH domain (28 to 166 residues) expressed in Escherichia coli BL21 CodonPlus (DE3)-RIPL cells using Myc-PTEN as substrate assessed as disruption of SPOP binding to substrate at 1 to 40 uM incubated for 2 hrs by GST pull-down assay; conditions: dose 1-40 µM
786-0 [6] = experiment: Antiproliferative activity against human 786-0 cells assessed as inhibition of cell proliferation measured after 72 hrs by Celltiter Glo luminescent cell viability assay; type: functional, cell-based
HK-2 = experiment: Cytotoxicity against HK-2 cells assessed as inhibition of cell proliferation measured after 72 hrs by Celltiter Glo luminescent cell viability assay; type: toxicity, cell-based; conditions: human, hk-2, 72 h
OS-RC-2 = experiment: Inhibition of colony formation in human OS-RC-2 cells at 0.4 to 50 uM incubated for 10 to 14 days by crystal violet staining based imaging analysis; type: functional, cell-based; conditions: dose 0.4-50 µM, time 10-14 day
786-0 [7] = experiment: Inhibition of colony formation in human 786-0 cells at 0.4 to 50 uM incubated for 10 to 14 days by crystal violet staining based imaging analysis; type: functional, cell-based; conditions: dose 0.4-50 µM, time 10-14 day
A498 = experiment: Inhibition of colony formation in human A498 cells at 0.4 to 50 uM incubated for 10 to 14 days by crystal violet staining based imaging analysis; type: functional, cell-based; conditions: dose 0.4-50 µM, time 10-14 day
769-P = experiment: Inhibition of colony formation in human 769-P cells at 0.4 to 50 uM incubated for 10 to 14 days by crystal violet staining based imaging analysis; type: functional, cell-based; conditions: dose 0.4-50 µM, time 10-14 day

T1 sequence (O43791 whole entry, the tested form may be a part): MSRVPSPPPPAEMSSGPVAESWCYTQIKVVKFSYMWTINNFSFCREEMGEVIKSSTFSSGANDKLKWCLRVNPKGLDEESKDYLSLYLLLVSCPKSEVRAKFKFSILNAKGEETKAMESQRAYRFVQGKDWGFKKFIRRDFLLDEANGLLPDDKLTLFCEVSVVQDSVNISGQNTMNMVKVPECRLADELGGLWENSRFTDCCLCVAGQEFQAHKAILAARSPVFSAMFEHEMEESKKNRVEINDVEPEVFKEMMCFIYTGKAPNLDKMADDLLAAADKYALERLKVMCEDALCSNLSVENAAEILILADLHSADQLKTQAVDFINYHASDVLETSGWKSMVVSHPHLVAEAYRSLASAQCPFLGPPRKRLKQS

| SMILES | IC50 (Speckle-type POZ protein [1]) [µM] | other results |
| --- | --- | --- |
| CC1(C)S[C@@H]2[C@H](NC(=O)c3ccc(COc4ccc(Br)cc4Cl)o3)C(=O)N2[C@H]1C(=O)O | 20.5 | – |
| C=CC1=C(C(=O)O)N2C(=O)[C@@H](NC(=O)c3ccc(COc4ccccc4)o3)[C@H]2SC1 | 6.33 | Ratio IC50 (Speckle-type POZ protein [2]): 2 |
| C=CC1=C(C(=O)O)N2C(=O)[C@@H](NC(=O)c3ccc(C)o3)[C@H]2SC1 | 20.7 | – |
| Cc1nnc(SCC2=C(C(=O)O)N3C(=O)[C@@H](NC(=O)c4ccc(COc5ccc(Br)cc5Cl)o4)[C@H]3SC2)s1 | 32.3 | – |
| Cn1nnnc1SCC1=C(C(=O)O)N2C(=O)[C@@H](NC(=O)c3ccc(COc4ccc(Br)cc4Cl)o3)[C@H]2SC1 | 34.6 | – |
| C=CC1=C(C(=O)O)N2C(=O)[C@@H](NC(=O)c3ccc(CBr)o3)[C@H]2SC1 | > 100 | – |
| C[C@H]1[C@H](NC(=O)c2ccc(COc3ccc(Br)cc3Cl)o2)C(=O)N1S(=O)(=O)O | > 100 | – |
| C=CC1=C(C(=O)O)N2C(=O)[C@@H](NC(=O)c3cccc(COc4ccc(Br)cc4Cl)c3)[C@H]2SC1 | 30.1 | – |
| O=C(O)C1=CCS[C@@H]2[C@H](NC(=O)c3ccc(COc4ccc(Br)cc4Cl)o3)C(=O)N12 | 42.1 | – |
| C=CC1=C(C(=O)O)N2C(=O)[C@@H](NC(=O)c3ccc(C(=O)OC)o3)[C@H]2SC1 | > 100 | – |
| CC(=O)OCC1=C(C(=O)O)N2C(=O)[C@@H](NC(=O)c3ccc(COc4ccc(Br)cc4Cl)o3)[C@H]2SC1 | 12.5 | – |
| C=CC1=C(C(=O)O)N2C(=O)[C@@H](NC(=O)c3ccc(COc4ccc(F)cc4)o3)[C@H]2SC1 | 7.03 | – |
| C=CC1=C(C(=O)O)N2C(=O)[C@@H](NC(=O)c3ccc(COC)o3)[C@H]2SC1 | 26 | – |
| C=CC1=C(C(=O)O)N2C(=O)[C@@H](NC(=O)c3ccc(COc4cccnc4)o3)[C@H]2SC1 | 74.4 | – |
| C=CC1=C(C(=O)O)N2C(=O)[C@@H](NC(=O)c3ccc(CO)o3)[C@H]2SC1 | > 100 | – |
| C=CC1=C(C(=O)O)N2C(=O)[C@@H](NC(=O)c3ccc(Br)o3)[C@H]2SC1 | > 100 | – |
| C=CC1=C(C(=O)O)N2C(=O)[C@@H](NC(=O)c3ccc(COc4ccc(C#N)cc4)o3)[C@H]2SC1 | > 100 | – |
| C=CC1=C(C(=O)O)N2C(=O)[C@@H](NC(=O)c3ccc(CCl)o3)[C@H]2SC1 | 0.58 | Ratio IC50 (Speckle-type POZ protein [2]): 22; Kd (Speckle-type POZ protein [3]): 1.54 µM; inhibition (Speckle-type POZ protein [4]): Active; inhibition (Speckle-type POZ protein [5]): Active; Activity (786-0 [6]): Active; Activity (HK-2): Non-Toxic; inhibition (OS-RC-2): Active; inhibition (786-0 [7]): Active; inhibition (A498): Active; inhibition (769-P): Active |
| C=CC1=C(C(=O)O)N2C(=O)[C@@H](NC(=O)c3ccco3)[C@H]2SC1 | 81.2 | – |
| C=CC1=C(C(=O)O)N2C(=O)[C@@H](NC(=O)c3ccc(Cl)o3)[C@H]2SC1 | > 100 | – |
| C=CC1=C(C(=O)O)N2C(=O)[C@@H](NC(=O)c3ccc(CF)o3)[C@H]2SC1 | 20.9 | – |

Now from value to compound, other results behind:

| IC50 (Speckle-type POZ protein [1]) [µM] | SMILES | other results |
| --- | --- | --- |
| > 100 | O=C(O)C1=C(CO)CS[C@@H]2[C@H](NC(=O)c3ccc(COc4ccc(Br)cc4Cl)o3)C(=O)N12 | – |
| 15.1 | C=CC1=C(C(=O)O)N2C(=O)[C@@H](NC(=O)c3ccc(COc4ccc(Br)cc4Cl)s3)[C@H]2SC1 | – |
| > 100 | C=CC1=C(C(=O)O)N2C(=O)[C@@H](NC(=O)c3ccc(COc4ccc(Cl)cc4Br)o3)[C@H]2SC1 | – |
| 11.7 | C=CC1=C(C(=O)O)N2C(=O)[C@@H](NC(=O)c3ccc(COc4ccc(C#N)cc4Cl)o3)[C@H]2SC1 | – |
| 5.35 | C=CC1=C(C(=O)O)N2C(=O)[C@@H](NC(=O)c3ccc(COc4ccc(Br)cc4Cl)o3)[C@H]2SC1 | Ratio IC50 (Speckle-type POZ protein [2]): 3 |
| 98 | C=CC1=C(C(=O)O)N2C(=O)[C@@H](NC(=O)c3ccc(COc4ccc(F)cc4Cl)o3)[C@H]2SC1 | – |
| > 100 | C=CC1=C(C(=O)O)N2C(=O)[C@@H](NC(=O)c3ccc(COc4ccc(Br)cc4)o3)[C@H]2SC1 | – |
| > 100 | C=CC1=C(C(=O)O)N2C(=O)[C@@H](NC(=O)c3ccc(COc4ccccc4Cl)o3)[C@H]2SC1 | – |
| > 100 | C=CC1=C(C(=O)O)N2C(=O)[C@@H](NC(=O)c3ccc(COc4c(C)cc(Br)cc4Cl)o3)[C@H]2SC1 | – |
| > 100 | C=CC1=C(C(=O)O)N2C(=O)[C@@H](NC(=O)c3ccc(COCC)o3)[C@H]2SC1 | – |
| 53.3 | O=C(O)C1=C(Cl)CS[C@@H]2[C@H](NC(=O)c3ccc(COc4ccc(Br)cc4Cl)o3)C(=O)N12 | – |
| > 100 | C=CC1=C(C(=O)O)N2C(=O)[C@@H](NC(=O)c3ccc(CNc4ccc(Br)cc4Cl)o3)[C@H]2SC1 | – |
| 52.6 | C/C=C/C1=C(C(=O)O)N2C(=O)[C@@H](NC(=O)c3ccc(COc4ccc(Br)cc4Cl)o3)[C@H]2SC1 | – |
| 52.1 | C=CC1=C(C(=O)O)N2C(=O)[C@@H](NC(=O)c3ccc(C(=O)Nc4ccc(Br)cc4Cl)o3)[C@H]2SC1 | – |
| > 100 | COCC1=C(C(=O)O)N2C(=O)[C@@H](NC(=O)c3ccc(COc4ccc(Br)cc4Cl)o3)[C@H]2SC1 | – |
| > 100 | CC1=C(C(=O)O)N2C(=O)[C@@H](NC(=O)c3ccc(COc4ccc(Br)cc4Cl)o3)[C@H]2SC1 | – |
| > 100 | C=CC1=C(C(=O)O)N2C(=O)[C@@H](NC(=O)c3ccc(COc4cccc(Cl)c4)o3)[C@H]2SC1 | – |
| 66 | C=CC1=C(C(=O)O)N2C(=O)[C@@H](NC(=O)c3ccc(COCc4ccc(Br)cc4Cl)o3)[C@H]2SC1 | – |
